From patent publication US10183021B2, “sGC stimulators” (Ironwood Pharmaceuticals, Inc., priority 2013, dated 2019)
Where two headings read alike, the source gives them in different places.

Molecular target: soluble guanylate cyclase (sGC) (Homo sapiens (Human), UniProt Q02108+Q02153)
Experiment: sGC-HEK-cGMP assay with SNP incubation, LC/MS detection (Example 2A)
Type: cell-based
Settings: HEK293 cells, 10 μM SNP, LC/MS detection; for Emax: 100% = BAY 41-2272 at 10 μM, read-out: HEK assay Emax - unconstrained (%)
Protocol: Human embryonic kidney cells (HEK293), endogenously expressing soluble guanylate cyclase (sGC), were used to evaluate the activity of test compounds. Compounds stimulating the sGC receptor should cause an increase in the intracellular concentration of cGMP. HEK 293 cells were seeded in Dulbecco's Modification of Eagle's Medium supplemented with fetal bovine serum (10% final) and L-glutamine (2 mM final) in a 200 L volume at a density of 1×10^5 cells/well in a poly-D-lysine coated 96 well flat bottom plate and grown overnight at 37° C. Medium was aspirated and cells were washed with 1× Hank's Buffered Saline Salt Solution (200 μL). Cells were then incubated for 15 minutes at 37° C. with 200 μL of a 0.5 mM 3-isobutyl-1-methylxanthine (IBMX) solution. Test article and sodium nitroprusside solutions (x μM concentration for test article solution and 10 μM concentration for SNP solution; wherein x is one of the following concentrations: 30 μM, 10 μM, 3 μM, 1 μM, 0.3 μM, 0.1 μM, 0.03 μM, 0.01 μM, 0.003 μM, 0.001 μM, 0.0003 μM or 0.0001 μM) were then added to the assay mixture (2 μL each) and the resulting mixture incubated at 37° C. for 10 minutes. After the 10 minute incubation, the assay mixture was aspirated and 0.1M HCl (200 μL) was added to the cells. The plate was incubated at 4° C. for 30 minutes in the 0.1M HCl to stop the reaction and lyse the cells. The plates were then centrifuged at 1,200 g for 5 minutes at room temperature. Supernatants were collected and transferred to a new flat bottom 96 well plate for analysis by HPLC-MS. Vehicle controls were carried out using DMSO (1%) solutions. A known sGC stimulator, BAY 41-2272, was used as the positive control. Samples were diluted with an equal volume of 1 M Ammonium Acetate (pH 7) to neutralize samples for better chromatography. A 2× cGMP standard solution was prepared in 0.1 M HCl and then diluted with an equal volume of 1 M Ammonium Acetate, with the following final concentrations in nM: 1024, 512, 256, 128, 64, 32, 16, 8, 4, 2, 1. cGMP concentrations in the test plates were determined from each sample using the LC/MS conditions shown in Table 2 below and the calculated cGMP standard curve. EC50 values were calculated from concentration-response curves generated with GraphPad Prism Software. Data were normalized to a high control using the following equation: 100*(Sample−Low Control)/(High Control−Low Control), where the low control is the average of 6 samples treated with 1% DMSO, and the high control is the average of 8-12 samples treated with 10 uM BAY 41-2272. Data were fit using a non-linear regression, sigmoidal dose response, 3 parameter fits.

[1] = top of curve not fitted to 100%, read-out: HEK assay EC50 - unconstrained

soluble guanylate cyclase (sGC), sequence (Q02153 whole entry): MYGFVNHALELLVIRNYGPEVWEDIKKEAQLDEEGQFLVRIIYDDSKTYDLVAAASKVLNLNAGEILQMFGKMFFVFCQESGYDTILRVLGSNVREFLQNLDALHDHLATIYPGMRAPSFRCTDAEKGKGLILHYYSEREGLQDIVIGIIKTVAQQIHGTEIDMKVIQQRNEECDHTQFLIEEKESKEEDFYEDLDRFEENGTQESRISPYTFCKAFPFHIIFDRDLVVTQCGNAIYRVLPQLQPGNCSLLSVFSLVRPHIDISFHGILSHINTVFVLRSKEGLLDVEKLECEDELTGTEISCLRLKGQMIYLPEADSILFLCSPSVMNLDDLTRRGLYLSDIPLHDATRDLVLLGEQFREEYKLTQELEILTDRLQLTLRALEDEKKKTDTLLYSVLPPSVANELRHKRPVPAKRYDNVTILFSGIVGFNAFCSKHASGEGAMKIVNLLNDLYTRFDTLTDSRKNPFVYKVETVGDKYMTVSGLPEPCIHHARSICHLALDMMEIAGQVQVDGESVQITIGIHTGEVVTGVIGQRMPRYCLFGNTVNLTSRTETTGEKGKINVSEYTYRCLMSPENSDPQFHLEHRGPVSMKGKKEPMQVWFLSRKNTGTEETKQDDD
soluble guanylate cyclase (sGC), sequence (Q02108 whole entry): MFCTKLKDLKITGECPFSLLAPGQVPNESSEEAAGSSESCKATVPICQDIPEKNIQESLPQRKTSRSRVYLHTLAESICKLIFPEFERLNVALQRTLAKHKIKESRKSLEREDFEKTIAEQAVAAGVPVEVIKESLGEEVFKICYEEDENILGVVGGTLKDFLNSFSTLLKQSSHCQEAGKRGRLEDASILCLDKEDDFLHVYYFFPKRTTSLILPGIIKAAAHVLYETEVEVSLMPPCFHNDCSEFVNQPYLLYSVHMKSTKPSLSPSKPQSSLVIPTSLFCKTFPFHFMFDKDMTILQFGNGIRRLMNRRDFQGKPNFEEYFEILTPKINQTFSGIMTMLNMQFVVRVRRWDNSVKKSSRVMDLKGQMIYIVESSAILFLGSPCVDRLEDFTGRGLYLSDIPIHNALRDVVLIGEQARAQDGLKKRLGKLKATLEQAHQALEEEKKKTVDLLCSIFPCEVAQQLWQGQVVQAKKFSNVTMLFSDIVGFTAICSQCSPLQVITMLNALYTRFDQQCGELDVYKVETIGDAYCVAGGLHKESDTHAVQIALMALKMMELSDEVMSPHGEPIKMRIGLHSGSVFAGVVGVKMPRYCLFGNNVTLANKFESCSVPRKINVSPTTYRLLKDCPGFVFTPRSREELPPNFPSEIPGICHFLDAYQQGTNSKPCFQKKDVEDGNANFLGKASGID

| SMILES | Emax [%] | EC50 [1] [nM] | EC50 (top of curve fitted to 100%, read-out: HEK assay EC50 - constrained) [nM] |
| --- | --- | --- | --- |
| CN(C)CCNc1nc(-c2cc(-c3ccon3)n(Cc3ccccc3F)n2)ncc1F [Compound I-7] | 40 to 60 | 1000 to 5000 | – |
| Fc1ccccc1Cn1nc(-c2ncc(Cl)c(N3CCOCC3)n2)cc1-c1ccon1 [Compound I-28] | 60 to 80 | 1000 to 5000 | – |
| Cc1noc(C2CCCCN2c2nc(-c3cc(-c4ccon4)n(Cc4ccccc4F)n3)ncc2F)n1 (stereo not shown) [Compound I-98] | 40 to 60 | 1000 to 5000 | – |
| CONC(=O)CN(C)c1nc(-c2cc(-c3ccon3)n(Cc3ccccc3F)n2)ncc1F [Compound I-218] | 40 to 60 | 1000 to 5000 | – |
| O=C(O)[C@H](Cc1ccccc1)Nc1nc(-c2cc(-c3ccon3)n(Cc3ccccc3F)n2)ncc1F [Compound I-80] | 80 to 100 | 500 to 1000 | – |
| COc1nc(-c2cc(-c3ccon3)n(Cc3ccccc3F)n2)nc(N2CCOCC2)c1F [Compound I-172] | – | – | > 10000 |
| O=C(O)C1(CNc2nc(-c3cc(-c4ccon4)n(Cc4ccccc4F)n3)ncc2F)CC1 [Compound I-210] | 100 to 120 | 1 to 100 | – |
| O=C(O)COC1CCN(c2nc(-c3cc(-c4ccon4)n(Cc4ccccc4F)n3)ncc2F)CC1 [Compound I-197] | 80 to 100 | 1000 to 5000 | – |
| NC1CN(c2nc(-c3cc(-c4ccon4)n(Cc4ccccc4F)n3)ncc2F)C1 [Compound I-40, 1-(5-fluoro-2-(1-(2-fluorobenzyl)-5-(isoxazol-3-yl)-1H-pyrazol-3-yl)pyrimidin-4-yl)azetidin-3-amine] | 60 to 80 | 1000 to 5000 | – |
| CC(C)(C)OC(=O)N1CCN(c2nc(-c3cc(-c4ccon4)n(Cc4ccccc4F)n3)ncc2F)C(CO)C1 (stereo not shown) [Compound I-184] | 80 to 100 | 500 to 1000 | – |
| COC(=O)N(C(=O)OC)c1nc(-c2cc(-c3ccon3)n(Cc3ccccc3F)n2)ncc1F [Compound I-52] | 60 to 80 | 1000 to 5000 | – |
| O=C(N1CCN(c2nc(-c3cc(-c4ccon4)n(Cc4ccccc4F)n3)ncc2F)C(CO)C1)C(F)(F)F (stereo not shown) [Compound I-212] | > 120 | 500 to 1000 | – |
| COC(=O)CC1CCN(c2nc(-c3cc(-c4ccon4)n(Cc4ccccc4F)n3)ncc2F)CC1 [Compound I-231] | 40 to 60 | > 10000 | – |
| Fc1ccccc1Cn1nc(-c2ncc(F)c(N3CCn4cnnc4C3)n2)cc1-c1ccon1 [Compound I-113] | 60 to 80 | 500 to 1000 | – |
| C[C@@H](C(=O)O)N(C)c1nc(-c2cc(-c3ccon3)n(Cc3ccccc3F)n2)ncc1F [Compound I-207] | 100 to 120 | 500 to 1000 | – |
| CC(C)(CC(=O)O)Nc1nc(-c2cc(-c3ccon3)n(Cc3ccccc3F)n2)ncc1F [Compound I-277] | 60 to 80 | 100 to 500 | – |
| N#CC1CCN(c2nc(-c3cc(-c4ccon4)n(Cc4ccccc4F)n3)ncc2F)CC1 [Compound I-123] | 60 to 80 | 100 to 500 | – |
| O=C(CNc1nc(-c2cc(-c3ccon3)n(Cc3ccccc3F)n2)ncc1F)N1CCOCC1 [Compound I-31] | 60 to 80 | 500 to 1000 | – |
| O=C(O)[C@H]1Cc2ccccc2N1c1nc(-c2cc(-c3ccon3)n(Cc3ccccc3F)n2)ncc1F [Compound I-91] | 40 to 60 | 5000 to 10000 | – |
| OC1CCCN(c2nc(-c3cc(-c4ccon4)n(Cc4ccccc4F)n3)ncc2F)C1 (stereo not shown) [Compound I-18] | 60 to 80 | – | – |
| NC(=O)C1CCCN(c2nc(-c3cc(-c4ccon4)n(Cc4ccccc4F)n3)ncc2F)C1 (stereo not shown) [Compound I-66] | 60 to 80 | 100 to 500 | – |
| CCN(CC)c1nc(-c2cc(-c3ccon3)n(Cc3ccccc3F)n2)ncc1F [Compound I-60] | 100 to 120 | 500 to 1000 | – |
| CN(CC1(C(=O)O)CCOCC1)c1nc(-c2cc(-c3ccon3)n(Cc3ccccc3F)n2)ncc1F [Compound I-238] | 60 to 80 | 100 to 500 | – |
| O=C(O)C1CCN(c2nc(-c3cc(-c4ccon4)n(Cc4ccccc4F)n3)ncc2F)C1 (stereo not shown) [Compound I-76] | 60 to 80 | 500 to 1000 | – |
| Fc1ccccc1Cn1nc(-c2nc(Cl)c(F)c(N3CCOCC3)n2)cc1-c1ccon1 [Compound I-150] | 40 to 60 | 100 to 500 | – |
| O=C(O)[C@@H]1c2ccccc2CCN1c1nc(-c2cc(-c3ccon3)n(Cc3ccccc3F)n2)ncc1F [Compound I-120] | 60 to 80 | 100 to 500 | – |
| O=C(O)CN(CC1CC1)c1nc(-c2cc(-c3ccon3)n(Cc3ccccc3F)n2)ncc1F [Compound I-203] | 40 to 60 | 100 to 500 | – |
| CC(C)[C@@H](C(=O)O)N(C)c1ccnc(-c2cc(-c3ccon3)n(Cc3ccccc3F)n2)n1 [Compound I-272] | 60 to 80 | 100 to 500 | – |
| OC[C@H]1CCCN1c1nc(-c2cc(-c3ccon3)n(Cc3ccccc3F)n2)ncc1F [Compound I-155] | 60 to 80 | 100 to 500 | – |

The remaining lines, values ahead:

| Emax [%] | EC50 [1] [nM] | EC50 (top of curve fitted to 100%, read-out: HEK assay EC50 - constrained) [nM] | SMILES |
| --- | --- | --- | --- |
| 60 to 80 | 100 to 500 | – | O=C(O)[C@@H](Cc1ccccc1)Nc1nc(-c2cc(-c3ccon3)n(Cc3ccccc3F)n2)ncc1F [Compound I-116] |
| 80 to 100 | 100 to 500 | – | CCC(C)(C)C1(C(=O)O)CCN(c2nc(-c3cc(-c4ccon4)n(Cc4ccccc4F)n3)ncc2F)CC1 [Compound I-256] |
| 100 to 120 | 1 to 100 | – | CS(=O)(=O)C1CCN(c2nc(-c3cc(-c4ccon4)n(Cc4ccccc4F)n3)ncc2F)CC1 [Compound I-175] |
| 40 to 60 | 100 to 500 | – | CC(C)(C)OC(=O)NC1CN(c2nc(-c3cc(-c4ccon4)n(Cc4ccccc4F)n3)ncc2F)C1 [Compound I-21, tert-butyl (1-(5-fluoro-2-(1-(2-fluorobenzyl)-5-(isoxazol-3-yl)-1H-pyrazol-3-yl)pyrimidin-4-yl)azetidin-3-yl)carbamate] |
| 80 to 100 | 100 to 500 | – | CN(c1nc(-c2cc(-c3ccon3)n(Cc3ccccc3F)n2)ncc1F)[C@@H](C(=O)O)C1CC1 [Compound I-241] |
| 80 to 100 | 1 to 100 | – | CC1(C)CN(c2nc(-c3cc(-c4ccon4)n(Cc4ccccc4F)n3)ncc2F)CC1C(=O)O (stereo not shown) [Compound I-152] |
| 80 to 100 | 1 to 100 | – | C[C@H](C[C@@H](Nc1nc(-c2cc(-c3ccon3)n(Cc3ccccc3F)n2)ncc1F)C(=O)O)C(F)(F)F [Compound I-225] |
| 80 to 100 | 1 to 100 | – | O=C(O)C(CCNc1nc(-c2cc(-c3ccon3)n(Cc3ccccc3F)n2)ncc1F)c1ccccc1 (stereo not shown) [Compound I-292] |
| 40 to 60 | 100 to 500 | – | Fc1ccccc1Cn1nc(-c2ncc(F)c(N3CCCC4(COC4)C3)n2)cc1-c1ccon1 [Compound I-47] |
| 60 to 80 | 100 to 500 | – | CC1(CC(=O)O)CCN(c2nc(-c3cc(-c4ccon4)n(Cc4ccccc4F)n3)ncc2F)CC1 [Compound I-289] |
| 60 to 80 | 100 to 500 | – | Fc1ccccc1Cn1nc(-c2ncc(F)c(N3CC4(COC4)C3)n2)cc1-c1ccon1 [Compound I-32] |
| 60 to 80 | 100 to 500 | – | CC(C)C[C@H](Nc1nc(-c2cc(-c3ccon3)n(Cc3ccccc3F)n2)ncc1F)C(=O)NS(=O)(=O)C1CC1 [Compound I-157] |
| 60 to 80 | 100 to 500 | – | O=C1CCCCCN1CCCNc1nc(-c2cc(-c3ccon3)n(Cc3ccccc3F)n2)ncc1F [Compound I-109] |
| 60 to 80 | 100 to 500 | – | CC(=O)NS(=O)(=O)N1CCN(c2nc(-c3cc(-c4ccon4)n(Cc4ccccc4F)n3)ncc2F)CC1 [Compound I-177] |
| 40 to 60 | 1 to 100 | – | CCOC(=O)c1nnc2n1CCN(c1nc(-c3cc(-c4ccon4)n(Cc4ccccc4F)n3)ncc1F)C2 [Compound I-115] |
| 60 to 80 | 100 to 500 | – | CN(C)c1nc(-c2cc(-c3ccon3)n(Cc3ccccc3F)n2)ncc1F [Compound I-8] |
| 60 to 80 | 100 to 500 | – | CC(C)[C@H](c1nnn[nH]1)N(C)c1nc(-c2cc(-c3ccon3)n(Cc3ccccc3F)n2)ncc1F [Compound I-237] |
| 60 to 80 | 100 to 500 | – | COC1CCN(c2nc(-c3cc(-c4ccon4)n(Cc4ccccc4F)n3)ncc2F)CC1 [Compound I-22] |
| 60 to 80 | 1 to 100 | – | Fc1ccccc1Cn1nc(-c2ncc(F)c(N3CCC4(CCOCC4)C3)n2)cc1-c1ccon1 [Compound I-43] |
